In patent publication US12262725B2, “Improving taste profile of orange juice” (SYMRISE AG, priority 2015, dated 2025):

Columns and labels:
Assay type in all cases: in vivo
[1] = Masking of typical bitter substances from citrus products; bitterness rated by a group of experts; conditions: for Assessment Bitter (0-10) With neoflavonoid: amount of neoflavonoid not given; for Relative masking (bitter): with vs without neoflavonoid
Text: Masking of Typical Bitter Substances from Citrus Products
For quantifying the reduction (i.e. the masking or the decrease) of the bitter impression in a sample, the bitterness of a solution containing the bitter substances named in the following Table 2 in column 1 were each compared with a sample, which contained the corresponding bitter substance and additionally the respectively specified amount of a neoflavonoid (column 2) by a group of experts (classification: 1 [not bitter] to 10 [extremely bitter]). For the analysis, i. e. the calculation of the reduction (in %) of the bitter impression, the respective average values of the assessments of the group of experts were used.

[2] = Masking the perception of the acid and the bitterness in orange juice; panelists rate sweet, bitter and sour on a 0-10 scale; conditions: for Assessment (0-10) Bitter / Assessment (0-10) Sour / Assessment (0-10) Sweet: scale 0-10
Text: The panelists (n=6-8) thereby evaluate the 3 attributes “sweet”, “bitter” and “sour” on an unstructured scale of 0 (no taste) to 10 (strong taste). In one sample, the panelists receive the orange juice alone, in a further sample, they received the orange juice which was supplemented with an amount of neoflavonoids as listed in one of the tables. Thereby, the order is arbitrary and not known to the panelists before.
In the following Tables 1A to 1D, the results of the evaluations are summed up.

[3] = Masking of the perception of the acid in citrus containing carbonated drinks; panelists rate sour on a 0-10 scale
Text: Masking of the Perception of the Acid in Citrus Containing Carbonated Drinks
For quantifying the reduction (i. e. the masking or the decrease) of the perception of the acid in a sample, the panelists (n=6-8) assess the attribute “sour” on a non-structured scale from 0 (no taste)-10 (strong taste). The panelists receive in one sample the citrus/-lime soft drink reduced in sugar alone, in a further sample the soft drink, to which an amount of neoflavonoids specified in Table 3 has been added. Thereby, the order is arbitrary and not known to the panelists before. In the following Table, the results of the evaluations are summed up.

[4] = HLB Hamlin orange juice, 15 ppm neoflavonoid vs juice alone
[5] = Orange juice comprising 7.8 ppm limonin, 10 ppm neoflavonoid vs juice alone
[6] = Orange juice comprising 7.8 ppm limonin, 10 ppm neoflavonoid, n=6-8
[7] = Orange juice, oranges infected with HLB from early ripening Hamlin March 2014, 15 ppm neoflavonoid, n=6-8
[8] = Trial 1B, orange juice comprising 7 ppm limonin, 20 ppm neoflavonoid vs juice alone
[9] = Trial 1B, orange juice comprising 7 ppm limonin, 20 ppm neoflavonoid
[10] = Trial 1C, orange juice comprising 7 ppm limonin, 25 ppm neoflavonoid vs juice alone
[11] = Trial 1C, orange juice comprising 7 ppm limonin, 25 ppm neoflavonoid
[12] = Trial 1D, orange juice comprising 7 ppm limonin, 25 ppm neoflavonoid vs juice alone
[13] = Trial 1D, orange juice comprising 7 ppm limonin, 25 ppm neoflavonoid

In the case of `COc1cc(C2CC(=O)Oc3cc(O)cc(O)c32)ccc1O` (stereo not shown) [1:1 mixture from component 9 and 10, 5,7-dihydroxy-4-(4-hydroxy-3-methoxy-phenyl)chroman-2-on], the “Assessment Bitter (0-10) With neoflavonoid” value (from here on “Assessment Bitter”) ([1]; solution of 10 ppm limonin) is reported as 2.5, the “Relative masking (bitter)” value ([1]; solution of 10 ppm limonin) is reported as −19% and the “Assessment Bitter” value ([1]; solution of 50 ppm poncirin) is reported as 3.5. The “Relative masking (bitter)” value ([1]; solution of 50 ppm poncirin) was −29%, the “Assessment Bitter” value ([1]; solution of 75 ppm naringin) was 2.9 and the “Relative masking (bitter)” value ([1]; solution of 75 ppm naringin) was −24%. For the same molecule, the “Relative change Bitter” value [2, 4] was −36%, the “Relative change Sour” value [2, 4] was −19% and the “Relative change Sweet” value [2, 4] was “+22%”. The “Relative change Bitter” value [2, 5] was −46%, the “Relative change Sour” value [2, 5] was −35% and the “Relative change Sweet” value [2, 5] was “+52%”. The “Assessment (0-10) Bitter” value [2, 6] was 2.5, the “Assessment (0-10) Sour” value [2, 6] was 3.5 and the “Assessment (0-10) Sweet” value [2, 6] was 6.0. The “Assessment (0-10) Bitter” value [2, 7] was 2.7, the “Assessment (0-10) Sour” value [2, 7] was 3.5 and the “Assessment (0-10) Sweet” value [2, 7] was 3.8.

With `O=C1CC(c2ccc(O)cc2)c2c(O)cc(O)cc2O1` (stereo not shown) [1:1 mixture from component 11 and 12, 5,7-dihydroxy-4-(4-hydroxyphenyl)-chroman-2-on] the “Assessment Bitter” value ([1]; solution of 10 ppm limonin) was 2.8, the “Relative masking (bitter)” value ([1]; solution of 10 ppm limonin) was −38% and the “Assessment Bitter” value ([1]; solution of 50 ppm poncirin) was 3.6. For the same molecule, the “Relative masking (bitter)” value ([1]; solution of 50 ppm poncirin) was −8%, the “Assessment Bitter” value ([1]; solution of 75 ppm naringin) was 3.7 and the “Relative masking (bitter)” value ([1]; solution of 75 ppm naringin) was −18%. For the same molecule, the “Relative change Bitter” value [2, 8] was −45%, the “Relative change Sour” value [2, 8] was −33% and the “Relative change Sweet” value [2, 8] was “+13%”. For the same molecule, the “Assessment (0-10) Bitter” value [2, 9] was 2.8, the “Assessment (0-10) Sour” value [2, 9] was 3.1 and the “Assessment (0-10) Sweet” value [2, 9] was 4.8.

In the case of `O=C1CC(c2ccc(O)cc2)c2ccc(O)cc2O1` (stereo not shown) [1:1 mixture from component 29 and 30, 7-hydroxy-4-(4-hydroxy-phenyl)-chroman-2-on], the “Relative change Bitter” value [2, 10] is reported as −45%, the “Relative change Sour” value [2, 10] is reported as −33% and the “Relative change Sweet” value [2, 10] is reported as “+13%”. The “Assessment (0-10) Bitter” value [2, 11] was 2.4, the “Assessment (0-10) Sour” value [2, 11] was 3.0 and the “Assessment (0-10) Sweet” value [2, 11] was 5.3.

With `COc1cc(C2CC(=O)Oc3cc(O)cc(OC)c32)ccc1O` (stereo not shown) [1:1 mixture from component 41 and 42, 7-hydroxy-4-(4-hydroxy-3-methoxy-phenyl)-5-methoxy-chroman-2-on] the “Relative masking (sour)” value ([3]; Carbonated soft drink (7° Brix, 0.2% citric acid), with vs without neoflavonoid, p < 0.1) was −17%, the “Assessment Sour (0-10) With neoflavonoid” value ([3]; Carbonated soft drink (7° Brix, 0.2% citric acid, 0.0001% citrus oil, 0.0001% lime oil, 0.06% citrus aroma), n=6-8) was 3.4 and the “Assessment Bitter” value ([1]; solution of 100 ppm naringin) was 3.7. The “Relative masking (bitter)” value ([1]; solution of 100 ppm naringin) was −15%, the “Relative change Bitter” value [2, 12] was −43% and the “Relative change Sour” value [2, 12] was −13%. The “Relative change Sweet” value [2, 12] was “+43%”, the “Assessment (0-10) Bitter” value [2, 13] was 2.7 and the “Assessment (0-10) Sour” value [2, 13] was 3.7. For the same molecule, the “Assessment (0-10) Sweet” value [2, 13] was 5.9.
